Columns and labels:
Puccinia recondita = test: Curative activity against brown rust of wheat caused by Puccinia recondita; format: in vivo; conditions: curative spray 1 day after inoculation, read after 7 days
Procedure: (§1) The active compounds, separately or jointly, were prepared as a stock solution comprising 25 mg of active compound which was made up to 10 ml using a mixture of acetone and/or dimethyl sulfoxide and the emulsifier Uniperol® EL (wetting agent having an emulsifying and dispersing action based on ethoxylated alkylphenols) in a ratio by volume of solvent/emulsifier of 99:1. The mixture was then made up to 100 ml with water. This stock solution was diluted with the solvent/emulsifier/water mixture described to give the concentration of active compound stated below.
(§2) As an alternative, the active compounds epoxiconazole, triticonazole and pyraclostrobin were used as commercially available ready-to-use formulation and diluted to the specified active compound concentration with water.
(§3) The visually determined percentages of infected leaf areas were converted into efficacies in % of the untreated control:
(§4) The efficacy (E) is calculated as follows using Abbot's formula: E=(1−α/β)·100 α corresponds to the fungicidal infection of the treated plants in % and β corresponds to the fungicidal infection of the untreated (control) plants in %
(§5) An efficacy of 0 means that the infection level of the treated plants corresponds to that of the untreated control plants; an efficacy of 100 means that the treated plants are not infected.
(§6) The expected efficacies of active compound combinations were determined using Colby's formula (Colby, S. R. “Calculating synergistic and antagonistic responses of herbicide combinations”, Weeds, 15, 20-22, 1967) and compared with the observed efficacies.
(§7) Colby's formula: E=x+y−x·y/100 • E expected efficacy, expressed in % of the untreated control, when using the mixture of the active compounds A and B at the concentrations a and b; • x efficacy, expressed in % of the untreated control, when using the active compound A at the concentration a; • y efficacy, expressed in % of the untreated control, when using the active compound B at the concentration b.
Leaves of potted wheat seedlings of the cultivar “Kanzler” were inoculated with a spore suspension of brown rust (Puccinia recondita). The pots were then placed in a chamber with high atmospheric humidity (90 to 95%) and 20 to 22° C. for 24 hours. During this time, the spores germinated and the germ tubes penetrated into the leaf tissue. The next day, the infected plants were sprayed to runoff point with the above-described active compound solution having the active compound concentration stated below. After the spray coating had dried on, the test plants were cultivated in a greenhouse at temperatures between 20 and 22° C. and 65 to 70% relative atmospheric humidity for 7 days. The extent of the rust fungal development on the leaves was then determined.

[1] = test system: Pyrenophora [syn. Drechslera] teres; test: Activity against net blotch of barley caused by Pyrenophora teres, 1 day protective application; format: in vivo; conditions: barley seedlings sprayed 24 h before inoculation, read after 6 days, efficacy in % of untreated control (Abbot)
Procedure: as §1, §2, §3
The efficacy (E) is calculated as follows using Abbot's formula: E=(1−α/β)·100 α corresponds to the fungicidal infection of the treated plants in % and β corresponds to the fungicidal infection of the untreated (control) plants in % […]
(§8) The expected efficacies of active compound combinations were determined using Colby's formula (Colby, S. R. “Calculating synergistic and antagonistic responses of herbicide combinations”, Weeds, 15, 20-22, 1967) and compared with the observed efficacies. […]

Botrytis cinerea = test: Activity against gray mold on bell pepper leaves caused by Botrytis cinerea, 1 day protective application; format: in vivo; conditions: 1 day protective spray, read after 5 days
Procedure: as §1, §2, §3, §4, §5, §6, §7
Bell pepper seedlings of the cultivar “Neusiedler Ideal Elite” were, after 2-3 leaves were well developed, sprayed to runoff point with an aqueous suspension in the active compound concentration specified below. The next day, the treated plants were inoculated with a spore suspension of Botrytis cinerea which contained 1.7×10^6 spores/ml in a 2% strength aqueous biomalt solution. The test plants were then placed in a climatized chamber at 22 to 24° C., darkness and high atmospheric humidity. After 5 days, the extent of the fungal infection on the leaves could be determined visually in %.

Alternaria solani = test: Activity against early blight of tomato caused by Alternaria solani (protective spray); format: in vivo; conditions: tomato leaves sprayed 1 day before infection, read after 5 days, efficacy in % of untreated control (Abbot)
Procedure: as §1, §2, §3, §4, §5, §8
Leaves of potted tomato plants were sprayed to runoff point with an aqueous suspension having the active compound concentration stated below. […] After 5 days, the disease on the untreated but infected control plants had developed to such an extent that the infection could be determined visually in %.

Fc1ccc([C@]2(Cn3cncn3)O[C@H]2c2ccccc2Cl)cc1 (racemic) [epoxiconazole, (2RS,3SR)-1-[3-(2-chlorophenyl)-2,3-epoxy-2-(4-fluorophenyl)propyl]-1H-1,2,4-triazole, reference compound]
Observed activity (% infection) (Puccinia recondita; 0.063 mg/l): 0%
Observed activity (% infection) ([1]; 0.063 mg/l): 0%

CC1CCN(c2c(-c3c(F)cc(F)cc3F)c(Cl)nc3ncnn23)CC1 [5-chloro-7-(4-methyl-piperidin-1-yl)-6-(2,4,6-trifluorophenyl)-[1,2,4]tri-azolo[1,5-a]pyrimidine]
Observed activity (% infection) (Puccinia recondita; 4 mg/l): 40%

Cn1cc(C(=O)Nc2ccccc2-c2cc(F)c(F)c(F)c2)c(C(F)F)n1 [No. Id.344, N-(3′,4′,5′-trifluorobiphenyl-2-yl)-3-difluoromethyl-1-methyl-1H-pyrazole-4-carboxamide]
Observed activity (% infection) (Botrytis cinerea; 1 mg/l): 40%
Observed activity (% infection) (Puccinia recondita; 1 mg/l): 0%
Observed activity (% infection) ([1]; 0.25 mg/l): 67%

Cn1cc(C(=O)Nc2ccccc2-c2cc(F)c(F)c(F)c2)c(CF)n1 [No. Ig. 344, N-(3′,4′,5′-trifluorobiphenyl-2-yl)-3-fluoromethyl-1-methyl-1H-pyrazole-4-carboxamide]
melting point: 152 to 156 °C

Cn1nc(Cl)c(C(=O)Nc2ccccc2-c2cc(F)c(F)c(F)c2)c1C(F)F [No. Ih. 344, N-(3′,4′,5′-trifluorobiphenyl-2-yl)-3-chlorodifluoromethyl-1-methyl-1H-pyrazole-4-carboxamide]
melting point: 158 to 161 °C

Cn1nc(Cl)c(C(=O)Nc2ccccc2-c2cc(F)c(F)c(F)c2)c1CF [No. Ij. 344, N-(3′,4′,5′-trifluorobiphenyl-2-yl)-3-chlorofluoromethyl-1-methyl-1H-pyrazole-4-carboxamide]
melting point: 154 to 157 °C

N#Cc1c(Cl)c(Cl)c(Cl)c(C#N)c1Cl [chlorthalonil, 2,4,5,6-tetrachloroisophthalonitrile, reference compound]
Observed activity (% infection) (Alternaria solani; 63 mg/l): 0%
Observed activity (% infection) (Puccinia recondita; 16 mg/l): 0%

COc1ccc(C(=CC(=O)N2CCOCC2)c2ccc(Cl)cc2)cc1OC [dimethomorph]
Observed activity (% infection) (Botrytis cinerea; 4 mg/l): 0%
Observed activity (% infection) (Botrytis cinerea; 16 mg/l): 0%
Observed activity (% infection) (Botrytis cinerea; 63 mg/l): 0%

COc1cc(C)c(C(=O)c2c(OC)ccc(Br)c2C)c(OC)c1OC [metrafenone]
Observed activity (% infection) (Botrytis cinerea; 4 mg/l): 0%
Observed activity (% infection) (Botrytis cinerea; 16 mg/l): 0%
Observed activity (% infection) (Botrytis cinerea; 63 mg/l): 0%

COC(=O)N(OC)c1ccccc1COc1ccn(-c2ccc(Cl)cc2)n1 [pyraclostrobin, methyl N-{2-[1-(4-chlorophenyl)-1H-pyrazol-3-yloxymethyl]phenyl}(N-methoxy)carbamate, reference compound]
Observed activity (% infection) (Alternaria solani; 4 mg/l): 50%
Observed activity (% infection) (Puccinia recondita; 1 mg/l): 0%

CC1(C)CCC(=Cc2ccc(Cl)cc2)C1(O)Cn1cncn1 (centres unmarked) [triticonazole]
Observed activity (% infection) (Botrytis cinerea; 4 mg/l): 0%
Observed activity (% infection) (Puccinia recondita; 1 mg/l): 0%

zinc ammoniate ethylenebis(dithiocarbamate) [metiram, reference compound]
Observed activity (% infection) (Botrytis cinerea; 16 mg/l): 0%
Observed activity (% infection) (Alternaria solani; 63 mg/l): 0%
